Experimental data published in US9890111B2, “Crystal structure of bifunctional transglycosylase PBP1b from E. coli and inhibitors thereof” (Academia Sinica, priority 2008, dated 2018).
Converted amounts (≈) assume the structure as drawn.

Legend:
[1] = tested on: Mycobacterium smegmatis (ATCC11565, MS); assay: Minimal inhibitory concentration (MIC), MS; type: cell-based; settings: for MIC: Mycolicibacterium smegmatis, ATCC11565, Mycobacterium smegmatis ATCC11565, read-out: MIC MS; for MIC MS: Mycobacterium smegmatis ATCC11565
Procedure: (§1) The minimal inhibitory concentration (MIC) of tested compounds was determined following the NCCLS standard. The experiments were conducted in 96-well microtiter plates using two-fold dilutions in Muller-Hilton broth with (Streptococcus pneumonia) or without blood (Bacillus subtilis, Enterococcus faecalis, Staphylococcus aureus, Escherichia coli, MRSA, Actinetobacter baumannii, Pseudomonas aeruginosa, Stenotrophomonas maltophilia, and Mycobacterium smegmatis). Exponentially growing cells at 5×10^5 cells/ml were incubated with test compounds at various concentrations. After an 18 h to 24 h incubation at 37° C., MIC was determined as the minimal concentration of the compound that prevents bacterial growth.

[2] = tested on: methicillin-resistant Staphylococcus aureus (ATCC33592, MRSA); assay: Minimal inhibitory concentration (MIC), MRSA; type: cell-based; settings: methicillin-resistant Staphylococcus aureus ATCC33592; for MIC: Staphylococcus aureus, read-out: MIC MRSA
Procedure: as §1

[3] = tested on: Staphylococcus aureus (ATCC29213, SA); assay: Minimal inhibitory concentration (MIC), SA; type: cell-based; settings: for MIC: Staphylococcus aureus, ATCC29213, Staphylococcus aureus ATCC29213, read-out: MIC SA; for MIC SA: Staphylococcus aureus ATCC29213
Procedure: as §1

[4] = target: T1, penicillin-binding protein 1b from E. coli (transglycosylase) (Escherichia coli, UniProt P02919); assay: Lipid II polymerization / transglycosylase (TG) activity assay; type: biochemical; settings: for TG Activity at various concentration of cmpd: 50 μM: 50 μM compound; for TG Activity at various concentration of cmpd: 50 μM / TG Activity at various concentration of cmpd: 100 μM / TG Activity at various concentration of cmpd: 25 μM: TG activity remaining (0% = full inhibition); for TG Activity at various concentration of cmpd: 100 μM: 100 μM compound; for TG Activity at various concentration of cmpd: 25 μM: 25 μM compound; for remaining activity at 50 µM: read-out: TG Activity at various concentration of cmpd: 50 μM; for remaining activity at 100 µM: read-out: TG Activity at various concentration of cmpd: 100 μM
T1 construct: PBP1b[58-804] was amplified from E. coli genomic DNA and cloned into the expression vector pET15b; His6 (N, cleaved yes); made in house; host or cells: E. coli BL21(DE3)
Procedure: Lipid II polymerization assays were carried out by incubating 100 μM fluorophore-labeled lipid II and penicillin-binding protein 1b from E. coli in tubes containing 10 ng/μL N-acetyl muramidase in 50 mM Tris.HCl (pH 8.0), 10 mM MgCl2, 0.1% Triton X-100, 10% DMSO, and 15% MeOH for 30 minutes (Van Nieuwenhze et al. J Am Chem Soc 2002, 124, 3656.). The fluorophore can be dansyl chloride, NBD, BODIPY, fluorescein. Reaction supernatants were then injected onto an anion-exchange HPLC column (SAX1, Supelco Co.) and eluted with a linear gradient of ammonium acetate (20 mM to 0.5 M) in methanol. The eluant was monitored for fluorescence with λex=466 nm and λem=535 nm.
Purified protein was concentrated in 20 mM Tris-HCl (pH 8.0), 300 mM NaCl, and 1 mM DDM. Instead of using Dansyl lipid II, 6-(N-(7-nitrobenz-2-oxa-1,3-diazol-4-yl)amino) hexanoyl (NBD)-labeled Lipid II was prepared as described (Taubes G (2008) Science 321:356-361; Payne D J (2008) Science 321:1644-1645) and used as a substrate to measure TG enzymatic activity, with approach similar to what has been described previously (Holtje J V (1998) Microbiol Mol Biol Rev 62:181-203). Assays were carried out by using the following condition: NBD-Lipid II, 20 nM protein, 50 mM Tris HCl (pH 8.0), 10 mMCaCl2, 0.085% decyl PEG (Anatrace), and 15% MeOH at 37° C. for 0, 1, 3, 5, 7, 9, 20, and 30 min. The concentration of NBD-Lipid II was varied from 1 to 100 μM to determine the rate of the TG activity. After the reaction, 200 μM moenomycin was added to stop the reaction, and 13 μM muramidase (Sigma-Aldrich) was added to digest the TG products to result in NBD-Lipid II without lipid tails. The fluorescent signal decrease of substrate and increase of NBD-Lipid II without lipid tails were detected by anion-exchange column SAX1 (Supelco) on HPLC (Hitachi). The elution procedures was a linear gradient of ammonium acetate (20 mM to 1 M) in MeOH monitored at λexcitation=466 nm and λemission=535 nm. The kinetic parameter was estimated by following the Michaelis-Menten equation. To investigate the importance of transmembrane (TM) helix, PBP1b and PBP1bΔTM (residues Met-1 to Leu-87 were removed) were extracted with the buffer containing 20 mM Tris-HCl (pH 8.0), 300 mM NaCl, and 13 mM FOS-CHOLINE-14 (Anatrace). The protein was purified by nickel chelation chromatography in the presence of 1 mM DDM. The activity assay was carried out by using the following condition: 12 μM NBD-Lipid II, 20 nM protein, 50 mM Tris-HCl (pH 8.0), 10 mM CaCl2, 0.085% decyl PEG, and 15% MeOH at 37° C. for time 0, 1, 3, 5, 7, 9, 20, and 30 min. The initial velocity was used to compare the activity of full-length PBP1b and PBP1bΔTM.

T1 sequence (P02919 58-804): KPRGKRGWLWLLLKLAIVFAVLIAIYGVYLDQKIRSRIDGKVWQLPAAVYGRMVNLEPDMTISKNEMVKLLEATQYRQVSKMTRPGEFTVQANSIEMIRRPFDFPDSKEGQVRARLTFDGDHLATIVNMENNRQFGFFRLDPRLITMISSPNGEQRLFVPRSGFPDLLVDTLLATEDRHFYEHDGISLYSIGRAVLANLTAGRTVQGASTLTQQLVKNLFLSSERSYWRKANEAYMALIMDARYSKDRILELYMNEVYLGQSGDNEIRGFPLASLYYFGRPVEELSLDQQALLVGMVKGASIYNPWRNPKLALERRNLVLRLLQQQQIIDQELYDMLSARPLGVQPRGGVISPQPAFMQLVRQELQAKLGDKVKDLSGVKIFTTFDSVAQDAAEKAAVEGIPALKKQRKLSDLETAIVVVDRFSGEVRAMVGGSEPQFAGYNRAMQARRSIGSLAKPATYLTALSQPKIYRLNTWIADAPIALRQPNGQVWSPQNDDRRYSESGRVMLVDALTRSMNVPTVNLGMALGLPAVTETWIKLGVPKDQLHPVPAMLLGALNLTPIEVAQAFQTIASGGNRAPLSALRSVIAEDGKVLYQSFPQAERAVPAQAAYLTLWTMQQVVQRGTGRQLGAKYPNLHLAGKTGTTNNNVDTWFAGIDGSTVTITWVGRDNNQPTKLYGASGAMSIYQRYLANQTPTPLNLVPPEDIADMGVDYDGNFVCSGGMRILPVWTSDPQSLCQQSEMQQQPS

SMILES | MIC MS [1] [µg/mL] | MIC MRSA [2] [µg/mL] | MIC SA [3] [µg/mL] | TG Activity at various concentration of cmpd: 50 μM [4] [%] | TG Activity at various concentration of cmpd: 100 μM [4] [%] | further results
O=C(Nc1cc(Cl)ccc1Cl)c1cc(Cl)cc(Cl)c1O [Compound 141] | – | – | – | – | – | MIC [1]: 2 µg/mL (≈ 5.7 µM); MIC [2]: 0.5 µg/mL (≈ 1.42 µM); MIC [3]: 1 µg/mL (≈ 2.85 µM)
O=C(Nc1cc(Cl)c(Cl)c(Cl)c1)c1cc(Cl)cc(Cl)c1O [Compound 142] | 0.125 (≈ 0.324 µM) | 0.5 (≈ 1.3 µM) | 0.5 (≈ 1.3 µM) | – | – | –
Cc1ccc(C(=O)c2cc(Cl)cc(NC(=O)c3cc(Br)cc(Br)c3O)c2Cl)cc1 [Compound 145] | >4 | >4 | >4 | 100 | 0 | –
Cc1ccc(C(C)C)c(Oc2ccccc2NC(=O)c2cc(I)cc(I)c2O)c1 [Compound 201] | 8 (≈ 13 µM) | 2 (≈ 3.26 µM) | 4 (≈ 6.52 µM) | 0 | – | TG Activity at various concentration of cmpd: 25 μM [4]: 30%
Cc1ccc(C(C)C)c(Oc2cc(Cl)ccc2NC(=O)c2cc(Br)cc(Br)c2O)c1 [Compound 202] | 1 (≈ 1.81 µM) | 1 (≈ 1.81 µM) | 1 (≈ 1.81 µM) | 0 | – | TG Activity at various concentration of cmpd: 25 μM [4]: 20%
O=C(Nc1cccc(Cl)c1)c1cc(Br)cc(Br)c1O [Compound 203] | – | – | – | – | – | remaining activity at 50 µM [4]: 100%; remaining activity at 100 µM [4]: 100%; MIC [1]: 4 µg/mL (≈ 9.87 µM); MIC [2]: 2 µg/mL (≈ 4.93 µM); MIC [3]: 2 µg/mL (≈ 4.93 µM)
Cc1ccc(C(C)C)c(Oc2ccccc2NC(=O)c2cc(Br)cc(Br)c2O)c1 [Compound 204] | 8 (≈ 15.4 µM) | 4 (≈ 7.7 µM) | 1 (≈ 1.93 µM) | 0 | – | TG Activity at various concentration of cmpd: 25 μM [4]: 50%
Cc1ccc(C(C)C)cc1Oc1ccc(Cl)cc1NC(=O)c1cc(Cl)ccc1O [Compound 205] | 1 (≈ 2.32 µM) | 0.5 (≈ 1.16 µM) | 0.5 (≈ 1.16 µM) | 90 | – | –
Cc1ccc(C(C)C)cc1Oc1ccc(Cl)cc1NC(=O)c1cc(Cl)cc(Br)c1O [Compound 206] | 1 (≈ 1.96 µM) | 0.5 (≈ 0.982 µM) | 1 (≈ 1.96 µM) | 0 | – | TG Activity at various concentration of cmpd: 25 μM [4]: 60%
O=C(c1ccc(Cl)cc1)c1ccc(Oc2ccc(Cl)cc2)c(NC(=O)c2cc(I)cc(I)c2O)c1 [Compound 207] | 32 (≈ 43.8 µM) | 4 (≈ 5.48 µM) | 8 (≈ 11 µM) | 0 | – | TG Activity at various concentration of cmpd: 25 μM [4]: 20%
Cc1ccc(C(C)C)c(Oc2ccc(Cl)cc2NC(=O)c2cc(I)cc(I)c2O)c1 [Compound 208] | 2 (≈ 3.09 µM) | 0.5 (≈ 0.772 µM) | 4 (≈ 6.18 µM) | 0 | – | TG Activity at various concentration of cmpd: 25 μM [4]: 100%
Cc1ccc(C(C)C)c(Oc2ccc(Cl)cc2NC(=O)c2cc(Cl)cc(Cl)c2O)c1 [Compound 209] | 0.5 (≈ 1.08 µM) | 0.25 (≈ 0.538 µM) | 1 (≈ 2.15 µM) | 0 | – | TG Activity at various concentration of cmpd: 25 μM [4]: 60%
O=C(Nc1ccccc1Oc1ccccc1)c1cc(Br)cc(Br)c1O [Compound A1N2] | – | – | >32 | 100 | 100 | –
O=C(Nc1ccc(Cl)cc1)c1cc(Br)cc(Br)c1O [Compound A1N4] | – | – | 1 (≈ 2.47 µM) | 100 | – | –
O=C(Nc1cc(Cl)ccc1Oc1ccccc1)c1cc(Br)cc(Br)c1 [Compound A2N1] | – | – | >32 | 100 | 100 | –
O=C(Nc1ccccc1Oc1ccccc1)c1cc(Br)cc(Br)c1 [Compound A2N2] | – | – | >32 | 100 | 100 | –

SMILES | MIC MS [1] [µg/mL] | MIC MRSA [2] [µg/mL] | MIC SA [3] [µg/mL] | TG Activity at various concentration of cmpd: 50 μM [4] [%] | TG Activity at various concentration of cmpd: 100 μM [4] [%] | further results
Cc1ccc(NC(=O)c2cc(Br)cc(Br)c2)cc1Cl [Compound A2N3] | – | – | >32 | 100 | 100 | –
O=C(Nc1cc(Cl)ccc1Oc1ccccc1)c1ccccc1O [Compound A3N1] | – | – | 1 (≈ 2.94 µM) | 100 | 100 | –
O=C(Nc1ccccc1Oc1ccccc1)c1ccccc1O [Compound A3N2] | – | – | 8 (≈ 26.2 µM) | 100 | 100 | –
Cc1ccc(NC(=O)c2ccccc2O)cc1Cl [Compound A3N3] | – | – | – | – | – | remaining activity at 50 µM [4]: 100%; remaining activity at 100 µM [4]: 100%; MIC [3]: 4 µg/mL (≈ 15.3 µM)
O=C(Nc1ccc(Cl)cc1)c1ccccc1O [Compound A3N4] | – | – | – | – | – | remaining activity at 50 µM [4]: 100%; remaining activity at 100 µM [4]: 100%; MIC [3]: 8 µg/mL (≈ 32.3 µM)
O=C(Nc1ccc([N+](=O)[O-])cc1)c1ccccc1O [Compound A3N5] | – | – | – | – | – | remaining activity at 50 µM [4]: 100%; remaining activity at 100 µM [4]: 100%; MIC [3]: 4 µg/mL (≈ 15.5 µM)
COc1ccc(NC(=O)c2ccccc2O)cc1 [Compound A3N6] | – | – | – | – | – | remaining activity at 50 µM [4]: 100%; remaining activity at 100 µM [4]: 100%; MIC [3]: > 32 µg/mL
O=C(Nc1cc(Cl)ccc1Oc1ccccc1)c1ccccc1 [Compound A4N1] | – | – | >32 | 100 | 100 | –
Cc1ccc(NC(=O)c2ccccc2)cc1Cl [Compound A4N3] | – | – | >32 | 100 | 100 | –
O=C(Nc1cc(Cl)ccc1Oc1ccccc1)c1ccc(O)c(O)c1O [Compound A5N1] | – | – | 8 (≈ 21.5 µM) | 100 | 0 | –
O=C(Nc1ccccc1Oc1ccccc1)c1ccc(O)c(O)c1O [Compound A5N2] | – | – | 8 (≈ 23.7 µM) | 100 | 0 | –
Cc1ccc(NC(=O)c2ccc(O)c(O)c2O)cc1Cl [Compound A5N3] | – | – | – | – | – | remaining activity at 50 µM [4]: 100%; remaining activity at 100 µM [4]: 0%; MIC [3]: 4 µg/mL (≈ 13.6 µM)
O=C(Nc1cc(Cl)ccc1Oc1ccccc1)c1ccc(O)cc1 [Compound A6N1] | – | – | 16 (≈ 47.1 µM) | 100 | 100 | –
O=C(Nc1ccccc1Oc1ccccc1)c1ccc(O)cc1 [Compound A6N2] | – | – | >32 | 100 | 100 | –
Cc1ccc(NC(=O)c2ccc(O)cc2)cc1Cl [Compound A6N3] | – | – | 32 (≈ 122 µM) | 100 | 100 | –
